What all share (type): cell-based, human
Experiment [1] has as its system PCSK9. Kind of experiment: Pulse-chase metabolic labeling and immunoprecipitation of PCSK9-related proteins in Huh7 cells. Particulars: Huh7 pre-incubated 24 h with 5 μM Q3G. As to the method:
For metabolic labeling, Huh7 cells were seeded in a 12-well plate 8×10^5 cells/well in 1.5 ml/well of complete medium and incubated overnight. After a rinse with Dulbecco's PBS (PBS-D), cell monolayers were overlaid with 1.5 ml of DMEM/10% LPDS without or with 5 μM Q3G, and were incubated for 24 h. Fresh serum-free medium (SFM, 1.5 ml) was substituted, and cells were allowed to incubate for 30 min to reduce endogenous Met and Cys. The medium was removed and replaced with fresh SFM (0.75 ml/well) containing 300 μCi/ml^35S-Met/Cys, and cells were incubated at 37° C. for 20 min to label de novo biosynthesized proteins (pulse-labeling). The radioactive medium was replaced with DMEM/0.5% LPDS containing 10 mM non-radioactive Met/Cys and cells were incubated at 37° C. for 0, 15, 30, 60, 90 and 120 min (chase). Conditioned media and cell lysates were processed as described above.
Radioactive conditioned media or cell lysates (0.1 ml) were supplemented with […] of normal rabbit serum and 15 μl of a 50% (w/v) suspension of Protein A-agarose. After a 1-h incubation at 4° C. with rotational mixing, the samples were centrifuged at 3,000 g for 5 min at 4° C. Supernatants were supplemented 2 μl of rabbit anti-PCSK9 [35], and incubated as above. […] Specific radioactive protein bands were visualized and quantified on a Typhoon Phosphorimager (Molecular Dynamics). […]

Experiment [2] has as its system PCSK9. Kind of experiment: Semi-quantitative immunoblotting for cellular PCSK9 in Huh7 cells. As to the method:
At passage, Huh7 cells were routinely seeded at sub-confluence (˜10^6 cells/10-cm dish) in Dulbecco's modified Eagle's medium (DMEM) containing 10% fetal bovine serum (FBS) or LPDS (for experiments) and 50 μg/ml gentamycin. They were incubated overnight at 37° C., in a humidified 5% CO2-95% air atmosphere. Cells were treated or not with Q3G at defined concentrations and for defined lengths of time. Media were collected and centrifuged at 200 g for 5 min to sediment suspended cells; supernatants were collected and supplemented with 0.33 volumes of a 3×-concentrated PIC. Cell monolayers were rinsed with ice-cold phosphate-buffered saline (PBS); they were overlaid with […] the RIPA lysis buffer (50 mM Tris-HCl, pH 8, 150 mM NaCl, 1% NP-40, 0.5% Na-deoxycholate and 0.1% SDS) supplemented with 1× PIC. After 20 min in an ice bath, the lysates were centrifuged at 14,000 g and 4° C. for 20 min, and supernatants were collected. Conditioned media and lysates were stored at −20° C. until analysis.
Cell lysates were fractionated by SDS-PAGE and electrophoretically transferred onto a polyvinylidene fluoride membrane. The membrane was incubated with a goat antihuman LDLR, rabbit anti-PCSK9, or rabbit anti-SREBP-2 polyclonal antibody at 1:1000, 1:1500, and 1:200 dilutions, respectively, and then with a HRP-conjugated heterospecific secondary antibody against the primary Igs at a 1:2000 dilution. It was probed for HRP reaction using the Western Lightning Chemiluminescence Reagent Plus a chemiluminescence-based revelation kit. The signal was captured on X-ray film and immunoreactive bands analyzed by densitometry on a Syngene's ChemiGenius^2XE Bio Imaging System (Cambridge, Mass.) within the dynamic range of the instrument. The membrane was stripped and reprobed with the anti-β-actin monoclonal primary antibody at 1:20,000 dilution and HRP-conjugated rabbit anti-mouse IgG secondary antibody at a 1:5000 dilution. The densitometric values of β-actin bands were using for normalization of experimental samples. […]
On the technique in general: In western blotting, separated proteins are transferred to a membrane and probed.

A further experiment has as its system LDLR. Kind of experiment: Immunofluorescence flow cytometry of cell surface LDLR on Huh7 cells. Particulars: Huh7 pretreated 24 h with 5 μM Q3G versus untreated. As to the method:
Cells were seeded at 4×10^4 cell/10-cm dish in 3 ml of completed medium and incubated overnight. LPDS medium containing or not 5 μM Q3G was substituted and incubation resumed for 24 h. Subsequent steps were conducted with ice-cold solutions and at 4° C. Cell monolayers were rinsed with PBS, overlaid with PBS containing rabbit anti-LDLR antibody for 1 h, then with PBS containing Alexa Fluor-488-conjugated goat anti-rabbit Ig antibody for another 1 h. After a PBS rinse, the cells were overlaid with Versene, suspended in DMEM and analyzed in Benson-Dickenson XL flow cytometer at 492 nm and 520 nm excitation and emission wavelengths, respectively. Cell autofluorescence and non-specific fluorescence were assessed using cells not treated with the secondary and the primary antibody, respectively.
To be functionally relevant, Q3G-induced LDLR should accumulate at the cell surface of the hepatocyte cells where it could mediate LDL uptake. To verify the surface localization of the receptor, untreated and pretreated intact Huh7 cells were stained at 4° C. for LDLR by indirect immunofluorescence, and analyzed by fluorescence flow cytometry.

Regarding `O=c1c(O[C@@H]2O[C@H](CO)[C@@H](O)[C@H](O)[C@H]2O)c(-c2ccc(O)c(O)c2)oc2cc(O)cc(O)c12` [Q3G, quercetin-3-O-β-D-glucoside], the “rate of intracellular proPCSK9 precursor processing versus untreated cells” value in the experiment on PCSK9 [1] is “no obvious difference”. Further, the “time to half-maximum accumulation of PCSK9 in culture media (percent of total PCSK9 proteins)” value in the experiment with PCSK9 [1] (control cells 60 min) is reported as 90 min. In the experiment on PCSK9 [2] (Huh7, 2 μM Q3G, time course), the “lag before PCSK9 accumulation in the cells” value is 3 h. In addition, the “amount of cellular PCSK9” value in the experiment on PCSK9 [2] (Huh7, 24 h, co-treatment 5 μM Q3G with simvastatin 0.2 and 1 μM) was “further increased”. The “increase of PCSK9 protein in the cells” value in the experiment on PCSK9 [2] (Huh7, 24 h, highest Q3G concentration tested (0 to 10 μM)) came out at 1.9 ×. Moreover, in the experiment on LDLR, the “increase of LDLR cell surface density” value worked out at 1.7 fold.

The values are drawn from patent publication US20150190369A1, “QUERCETIN-3-GLUCOSIDE AND USES THEREOF” (priority 2012, published 2015).
